Earlier results as cited in article PMC6504684 (Frontiers in Pharmacology, 2019).

System: α9α10 nAChRs, mutation α9-Asp121Leu
Details: cited from earlier work

SMILES: CC(=O)OCC[N+](C)(C)C [ACh, acetylcholine]
- increase of EC50: ~30 times
